Assay results from ChEMBL document CHEMBL2150993, “Substituted thiazoles VII. Synthesis and antitumor activity of certain 2-(substituted amino)-4-phenyl-1,3-thiazole analogs” (2012).

Tests used:
Format in all cases: functional
Settings in all cases: at 10 µM
MCF7 = experiment: Growth inhibition of human MCF7 cells after 48 hrs by cell counting analysis
RXF 393 = experiment: Growth inhibition of human RXF393 cells after 48 hrs by cell counting analysis
MOLT-4 = experiment: Growth inhibition of human MOLT4 cells after 48 hrs by cell counting analysis
SR = experiment: Growth inhibition of human SR cells after 48 hrs by cell counting analysis
T47D = experiment: Growth inhibition of human T47D cells after 48 hrs by cell counting analysis
RPMI-8226 = experiment: Growth inhibition of human RPMI8226 cells after 48 hrs by cell counting analysis
[1] = Growth inhibition of human NCI-ADR-RES cells after 48 hrs by cell counting analysis
SK-OV-3 = experiment: Growth inhibition of human SKOV3 cells after 48 hrs by cell counting analysis
SNB-75 = experiment: Growth inhibition of human SNB75 cells after 48 hrs by cell counting analysis
UO-31 = experiment: Growth inhibition of human UO31 cells after 48 hrs by cell counting analysis
HCT-116 = experiment: Growth inhibition of human HCT116 cells after 48 hrs by cell counting analysis
HOP-92 = experiment: Growth inhibition of human HOP92 cells after 48 hrs by cell counting analysis
NCI-H226 = experiment: Growth inhibition of human NCI-H226 cells after 48 hrs by cell counting analysis
OVCAR-8 = experiment: Growth inhibition of human OVCAR8 cells after 48 hrs by cell counting analysis
LOX IMVI = experiment: Growth inhibition of human LOXIMVI cells after 48 hrs by cell counting analysis
Malme-3M = experiment: Growth inhibition of human MALME-3M cells after 48 hrs by cell counting analysis
HL-60 = experiment: Growth inhibition of human HL60 cells after 48 hrs by cell counting analysis
SK-MEL-28 = experiment: Growth inhibition of human SK-MEL-28 cells after 48 hrs by cell counting analysis
SF-295 = experiment: Growth inhibition of human SF295 cells after 48 hrs by cell counting analysis
[2] = Growth inhibition of human NCI-322M cells after 48 hrs by cell counting analysis
OVCAR-5 = experiment: Growth inhibition of human OVCAR5 cells after 48 hrs by cell counting analysis
OVCAR-3 = experiment: Growth inhibition of human OVCAR3 cells after 48 hrs by cell counting analysis
EKVX = experiment: Growth inhibition of human EKVX cells after 48 hrs by cell counting analysis
OVCAR-4 = experiment: Growth inhibition of human OVCAR4 cells after 48 hrs by cell counting analysis
K562 = experiment: Growth inhibition of human K562 cells after 48 hrs by cell counting analysis
MDA-MB-435 = experiment: Growth inhibition of human MDA-MB-435 cells after 48 hrs by cell counting analysis
SN12C = experiment: Growth inhibition of human SN12C cells after 48 hrs by cell counting analysis
ACHN = experiment: Growth inhibition of human ACHN cells after 48 hrs by cell counting analysis
SF-268 = experiment: Growth inhibition of human SF268 cells after 48 hrs by cell counting analysis
SK-MEL-2 = experiment: Growth inhibition of human SK-MEL-2 cells after 48 hrs by cell counting analysis
NCI-H23 = experiment: Growth inhibition of human NCI-H23 cells after 48 hrs by cell counting analysis
SNB-19 = experiment: Growth inhibition of human SNB19 cells after 48 hrs by cell counting analysis
A549 = experiment: Growth inhibition of human A549 cells after 48 hrs by cell counting analysis
SK-MEL-5 = experiment: Growth inhibition of human SK-MEL-5 cells after 48 hrs by cell counting analysis
UACC-257 = experiment: Growth inhibition of human UACC257 cells after 48 hrs by cell counting analysis
TK-10 = experiment: Growth inhibition of human TK10 cells after 48 hrs by cell counting analysis
SW-620 = experiment: Growth inhibition of human SW620 cells after 48 hrs by cell counting analysis
MDA-MB-468 = experiment: Growth inhibition of human MDA-MB-468 cells after 48 hrs by cell counting analysis
M14 = experiment: Growth inhibition of human M14 cells after 48 hrs by cell counting analysis
HT-29 = experiment: Growth inhibition of human HT-29 cells after 48 hrs by cell counting analysis
IGROV-1 = experiment: Growth inhibition of human IGROV1 cells after 48 hrs by cell counting analysis
KM12 = experiment: Growth inhibition of human KM12 cells after 48 hrs by cell counting analysis
HOP-62 = experiment: Growth inhibition of human HOP62 cells after 48 hrs by cell counting analysis
MDA-MB-231 = experiment: Growth inhibition of human MDA-MB-231 cells after 48 hrs by cell counting analysis
BT-549 = experiment: Growth inhibition of human BT549 cells after 48 hrs by cell counting analysis
HCC 2998 = experiment: Growth inhibition of human HCC2998 cells after 48 hrs by cell counting analysis
PC-3 = experiment: Growth inhibition of human PC3 cells after 48 hrs by cell counting analysis
U-251 = experiment: Growth inhibition of human U251 cells after 48 hrs by cell counting analysis
UACC-62 = experiment: Growth inhibition of human UACC62 cells after 48 hrs by cell counting analysis
HCT-15 = experiment: Growth inhibition of human HCT15 cells after 48 hrs by cell counting analysis
NCI-H522 = experiment: Growth inhibition of human NCI-H522 cells after 48 hrs by cell counting analysis
CAKI-1 = experiment: Growth inhibition of human Caki1 cells after 48 hrs by cell counting analysis
SF-539 = experiment: Growth inhibition of human SF539 cells after 48 hrs by cell counting analysis
CCRF-CEM = experiment: Growth inhibition of human CCRF-CEM cells after 48 hrs by cell counting analysis

**Q.** What does the source list for `O=C(CN1CCN(c2ccccc2)CC1)Nc1nc(-c2ccc(Br)cc2)cs1`?
**A.** growth inhibition (GI) (MCF7): 41.2%; growth inhibition (GI) (RXF 393): 13.6%; growth inhibition (GI) (MOLT-4): 47.6%; growth inhibition (GI) (SR): <10%; growth inhibition (GI) (T47D): 41.8%; growth inhibition (GI) (RPMI-8226): 33.6%; growth inhibition (GI) [1]: 30.9%; growth inhibition (GI) (SK-OV-3): <10%; growth inhibition (GI) (SNB-75): 17.9%; growth inhibition (GI) (UO-31): 54.6%; growth inhibition (GI) (HCT-116): 33.1%; growth inhibition (GI) (HOP-92): <10%; growth inhibition (GI) (NCI-H226): 20.2%; growth inhibition (GI) (OVCAR-8): 11.9%; growth inhibition (GI) (LOX IMVI): 11.6%; growth inhibition (GI) (Malme-3M): 13.8%; growth inhibition (GI) (HL-60): 27.1%; growth inhibition (GI) (SK-MEL-28): <10%; growth inhibition (GI) (SF-295): 20.9%; growth inhibition (GI) [2]: 20.5%; growth inhibition (GI) (OVCAR-5): <10%; growth inhibition (GI) (OVCAR-3): <10%; growth inhibition (GI) (EKVX): 26.7%; growth inhibition (GI) (OVCAR-4): <10%; growth inhibition (GI) (K562): 70.7%; growth inhibition (GI) (MDA-MB-435): 23.9%; growth inhibition (GI) (SN12C): 23.7%; growth inhibition (GI) (ACHN): 15.7%; growth inhibition (GI) (SF-268): 17%; growth inhibition (GI) (SK-MEL-2): 14.5%; growth inhibition (GI) (NCI-H23): 22.5%; growth inhibition (GI) (SNB-19): 23.9%; growth inhibition (GI) (A549): 30.8%; growth inhibition (GI) (SK-MEL-5): 39.4%; growth inhibition (GI) (UACC-257): 13.7%; growth inhibition (GI) (TK-10): 28.3%; growth inhibition (GI) (SW-620): <10%; growth inhibition (GI) (MDA-MB-468): 55.6%; growth inhibition (GI) (M14): 15.7%; growth inhibition (GI) (HT-29): 37.7%; growth inhibition (GI) (IGROV-1): 34.3%; growth inhibition (GI) (KM12): <10%; growth inhibition (GI) (HOP-62): <10%; growth inhibition (GI) (MDA-MB-231): 22.2%; growth inhibition (GI) (BT-549): 13.6%; growth inhibition (GI) (HCC 2998): 21%; growth inhibition (GI) (PC-3): 28.5%; growth inhibition (GI) (U-251): <10%; growth inhibition (GI) (UACC-62): 40.1%; growth inhibition (GI) (HCT-15): 26.1%; growth inhibition (GI) (NCI-H522): 34.5%; growth inhibition (GI) (CAKI-1): 33.5%; growth inhibition (GI) (SF-539): <10%; growth inhibition (GI) (CCRF-CEM): 22.2%
